Paper PMC5666424, “Marine-Derived 2-Aminoimidazolone Alkaloids. Leucettamine B-Related Polyandrocarpamines Inhibit Mammalian and Protozoan DYRK & CLK Kinases” (Marine Drugs, 2017)

How the values were obtained:
Experiment in all cases: KinomeScan
Assay type in all cases: binding
Settings in all cases: 1 μM
FLT1 = biological target: T1, FLT1 (Homo sapiens, UniProt P17948)
T1 construct: purchased DiscoverX (KINOMEscan)

ERK8 = biological target: T2, ERK8 (Homo sapiens, UniProt Q8TD08)
T2 construct: purchased DiscoverX (KINOMEscan)

BLK = biological target: T3, BLK (Homo sapiens, UniProt P51451)
T3 construct: purchased DiscoverX (KINOMEscan)

LATS2 = biological target: T4, LATS2 (Homo sapiens, UniProt Q9NRM7)
T4 construct: purchased DiscoverX (KINOMEscan)
T4 sequence (Q9NRM7 whole entry): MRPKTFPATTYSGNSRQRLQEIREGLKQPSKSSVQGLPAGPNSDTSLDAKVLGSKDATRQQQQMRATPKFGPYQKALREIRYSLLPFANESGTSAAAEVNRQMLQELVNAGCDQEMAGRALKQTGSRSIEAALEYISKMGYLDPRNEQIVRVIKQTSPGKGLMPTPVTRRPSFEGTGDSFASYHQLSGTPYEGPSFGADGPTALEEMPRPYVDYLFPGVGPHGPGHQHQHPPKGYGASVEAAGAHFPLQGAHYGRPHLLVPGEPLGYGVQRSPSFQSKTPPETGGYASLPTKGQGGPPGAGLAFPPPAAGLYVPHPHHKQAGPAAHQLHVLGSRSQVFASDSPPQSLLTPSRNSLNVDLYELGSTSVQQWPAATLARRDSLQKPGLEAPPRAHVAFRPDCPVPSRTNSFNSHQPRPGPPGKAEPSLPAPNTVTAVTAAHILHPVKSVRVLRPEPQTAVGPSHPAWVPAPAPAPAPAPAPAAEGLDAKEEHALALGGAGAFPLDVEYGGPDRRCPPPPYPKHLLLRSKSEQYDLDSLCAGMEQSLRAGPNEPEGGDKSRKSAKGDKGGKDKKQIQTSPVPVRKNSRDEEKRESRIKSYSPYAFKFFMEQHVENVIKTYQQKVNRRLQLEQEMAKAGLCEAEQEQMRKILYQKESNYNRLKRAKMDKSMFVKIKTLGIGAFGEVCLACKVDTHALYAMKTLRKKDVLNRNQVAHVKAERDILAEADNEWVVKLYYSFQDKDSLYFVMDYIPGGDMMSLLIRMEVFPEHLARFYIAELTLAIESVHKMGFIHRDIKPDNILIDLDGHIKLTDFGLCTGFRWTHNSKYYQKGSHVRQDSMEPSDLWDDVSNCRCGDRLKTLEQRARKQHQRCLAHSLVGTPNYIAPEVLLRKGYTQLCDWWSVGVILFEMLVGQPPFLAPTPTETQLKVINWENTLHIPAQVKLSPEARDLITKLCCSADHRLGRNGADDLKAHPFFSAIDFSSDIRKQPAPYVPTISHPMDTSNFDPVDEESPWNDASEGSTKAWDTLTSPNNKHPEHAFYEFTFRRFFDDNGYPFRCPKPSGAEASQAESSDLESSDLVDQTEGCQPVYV

CSNK1G2 = biological target: T5, CSNK1G2 (Homo sapiens, UniProt P78368)
T5 construct: purchased DiscoverX (KINOMEscan)

BMPR1B = biological target: T6, BMPR1B (Homo sapiens, UniProt O00238)
T6 construct: purchased DiscoverX (KINOMEscan)

SRMS = biological target: T7, SRMS (Homo sapiens, UniProt Q9H3Y6)
T7 construct: purchased DiscoverX (KINOMEscan)
T7 sequence (Q9H3Y6 whole entry): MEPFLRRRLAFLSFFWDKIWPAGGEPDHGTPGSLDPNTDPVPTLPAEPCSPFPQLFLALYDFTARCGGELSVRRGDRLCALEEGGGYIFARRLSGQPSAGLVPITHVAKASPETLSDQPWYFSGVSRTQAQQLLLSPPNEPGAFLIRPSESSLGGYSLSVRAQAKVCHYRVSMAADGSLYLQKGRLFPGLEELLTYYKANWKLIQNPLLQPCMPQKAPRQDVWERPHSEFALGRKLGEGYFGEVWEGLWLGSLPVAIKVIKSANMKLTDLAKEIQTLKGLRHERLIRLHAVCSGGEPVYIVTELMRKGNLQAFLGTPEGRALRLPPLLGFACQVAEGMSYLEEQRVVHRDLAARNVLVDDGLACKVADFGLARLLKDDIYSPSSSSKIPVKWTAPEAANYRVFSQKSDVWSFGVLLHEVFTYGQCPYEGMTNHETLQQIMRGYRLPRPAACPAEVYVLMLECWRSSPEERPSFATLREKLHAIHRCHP

CTK = biological target: T8, CTK (Homo sapiens, UniProt P42679)
T8 construct: purchased DiscoverX (KINOMEscan)

LIMK2 = biological target: T9, LIMK2 (Homo sapiens, UniProt P53671)
T9 construct: purchased DiscoverX (KINOMEscan)

MAP3K2 = biological target: T10, MAP3K2 (Homo sapiens, UniProt Q9Y2U5)
T10 construct: purchased DiscoverX (KINOMEscan)
T10 sequence (Q9Y2U5 whole entry): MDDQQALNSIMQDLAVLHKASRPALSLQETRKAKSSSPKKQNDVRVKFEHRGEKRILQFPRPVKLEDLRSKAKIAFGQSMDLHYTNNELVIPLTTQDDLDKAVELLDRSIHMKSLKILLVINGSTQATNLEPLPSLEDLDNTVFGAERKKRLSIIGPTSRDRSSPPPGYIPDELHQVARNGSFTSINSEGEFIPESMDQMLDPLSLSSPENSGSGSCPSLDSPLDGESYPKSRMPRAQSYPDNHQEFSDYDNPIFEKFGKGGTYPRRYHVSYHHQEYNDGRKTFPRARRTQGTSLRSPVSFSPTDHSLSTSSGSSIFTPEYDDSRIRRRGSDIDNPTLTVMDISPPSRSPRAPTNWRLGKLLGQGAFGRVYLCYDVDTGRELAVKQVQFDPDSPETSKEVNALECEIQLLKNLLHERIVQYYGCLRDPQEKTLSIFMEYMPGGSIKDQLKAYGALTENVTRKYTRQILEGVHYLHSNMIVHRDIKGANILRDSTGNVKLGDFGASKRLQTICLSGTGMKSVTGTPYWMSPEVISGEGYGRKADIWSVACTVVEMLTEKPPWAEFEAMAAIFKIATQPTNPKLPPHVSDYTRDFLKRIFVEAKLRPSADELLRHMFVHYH

STK35 = biological target: T11, STK35 (Homo sapiens, UniProt Q8TDR2)
T11 construct: purchased DiscoverX (KINOMEscan)

ACVRL1 = biological target: T12, ACVRL1 (Homo sapiens, UniProt P37023)
T12 construct: purchased DiscoverX (KINOMEscan)

[1] = biological target: T13, JAK3(JH1domain-catalytic) (Homo sapiens, UniProt P52333)
T13 construct: JAK3(JH1domain-catalytic); purchased DiscoverX (KINOMEscan)

EPHB2 = biological target: T14, EPHB2 (Homo sapiens, UniProt P29323)
T14 construct: purchased DiscoverX (KINOMEscan)

[2] = biological target: T15, ABL1(Q252H)-phosphorylated (Homo sapiens, UniProt P00519, Q252H)
T15 construct: purchased DiscoverX (KINOMEscan)

TBK1 = biological target: T16, TBK1 (Homo sapiens, UniProt Q9UHD2)
T16 construct: purchased DiscoverX (KINOMEscan)
T16 sequence (Q9UHD2 whole entry): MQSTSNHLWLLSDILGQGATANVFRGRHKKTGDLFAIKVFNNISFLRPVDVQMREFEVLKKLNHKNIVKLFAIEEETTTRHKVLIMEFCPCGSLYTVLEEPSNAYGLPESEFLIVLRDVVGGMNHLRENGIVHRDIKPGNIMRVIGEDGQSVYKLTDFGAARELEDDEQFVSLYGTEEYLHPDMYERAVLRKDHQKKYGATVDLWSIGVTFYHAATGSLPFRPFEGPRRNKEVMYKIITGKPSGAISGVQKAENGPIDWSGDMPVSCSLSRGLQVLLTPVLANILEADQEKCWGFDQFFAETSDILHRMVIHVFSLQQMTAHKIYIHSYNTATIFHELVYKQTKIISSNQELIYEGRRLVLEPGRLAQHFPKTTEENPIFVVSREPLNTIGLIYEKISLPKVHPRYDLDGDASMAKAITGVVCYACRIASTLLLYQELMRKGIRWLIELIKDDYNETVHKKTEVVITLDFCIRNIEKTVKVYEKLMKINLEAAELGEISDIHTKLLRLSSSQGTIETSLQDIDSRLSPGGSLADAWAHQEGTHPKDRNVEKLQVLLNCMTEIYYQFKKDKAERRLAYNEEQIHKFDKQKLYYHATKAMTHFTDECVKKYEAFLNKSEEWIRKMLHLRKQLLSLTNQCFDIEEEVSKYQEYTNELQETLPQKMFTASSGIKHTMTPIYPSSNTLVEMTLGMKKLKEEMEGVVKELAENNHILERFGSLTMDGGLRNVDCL

LRRK2(G2019S) = biological target: T17, LRRK2(G2019S) (Homo sapiens, UniProt Q5S007, G2019S)
T17 construct: purchased DiscoverX (KINOMEscan)

CDC2L1 = biological target: T18, CDC2L1 (Homo sapiens, UniProt P21127)
T18 construct: purchased DiscoverX (KINOMEscan)
T18 sequence (P21127 whole entry): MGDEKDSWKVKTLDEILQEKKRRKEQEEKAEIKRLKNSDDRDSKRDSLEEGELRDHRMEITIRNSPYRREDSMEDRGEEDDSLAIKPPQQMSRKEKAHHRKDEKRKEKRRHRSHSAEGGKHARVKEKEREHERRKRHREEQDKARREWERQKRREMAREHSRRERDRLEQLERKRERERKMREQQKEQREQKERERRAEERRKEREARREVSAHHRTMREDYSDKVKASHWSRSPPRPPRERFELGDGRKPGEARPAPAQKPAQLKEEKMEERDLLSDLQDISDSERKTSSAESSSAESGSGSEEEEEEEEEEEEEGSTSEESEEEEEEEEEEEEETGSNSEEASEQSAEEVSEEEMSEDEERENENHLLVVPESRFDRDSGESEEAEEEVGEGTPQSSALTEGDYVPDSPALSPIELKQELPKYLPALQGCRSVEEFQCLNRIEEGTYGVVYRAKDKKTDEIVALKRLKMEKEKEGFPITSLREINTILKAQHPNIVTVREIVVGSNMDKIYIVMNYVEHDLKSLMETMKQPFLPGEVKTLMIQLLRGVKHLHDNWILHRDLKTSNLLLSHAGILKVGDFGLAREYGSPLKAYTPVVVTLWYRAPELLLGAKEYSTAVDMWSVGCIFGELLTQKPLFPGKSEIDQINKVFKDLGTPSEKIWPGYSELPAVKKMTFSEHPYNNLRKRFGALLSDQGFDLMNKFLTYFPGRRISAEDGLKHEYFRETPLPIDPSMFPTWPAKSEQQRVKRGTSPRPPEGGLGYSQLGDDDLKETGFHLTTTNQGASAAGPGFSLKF

TRPM6 = biological target: T19, TRPM6 (Homo sapiens, UniProt Q9BX84)
T19 construct: purchased DiscoverX (KINOMEscan)

ULK3 = biological target: T20, ULK3 (Homo sapiens, UniProt Q6PHR2)
T20 construct: purchased DiscoverX (KINOMEscan)

EPHA6 = biological target: T21, EPHA6 (Homo sapiens, UniProt Q9UF33)
T21 construct: purchased DiscoverX (KINOMEscan)

EGFR(T790M) = biological target: T22, EGFR(T790M) (Homo sapiens, UniProt P00533, T790M)
T22 construct: purchased DiscoverX (KINOMEscan)

ERBB4 = biological target: T23, ERBB4 (Homo sapiens, UniProt Q15303)
T23 construct: purchased DiscoverX (KINOMEscan)

ULK2 = biological target: T24, ULK2 (Homo sapiens, UniProt Q8IYT8)
T24 construct: purchased DiscoverX (KINOMEscan)

MKK7 = biological target: T25, MKK7 (Homo sapiens, UniProt O14733)
T25 construct: purchased DiscoverX (KINOMEscan)

LKB1 = biological target: T26, LKB1 (Homo sapiens, UniProt Q15831)
T26 construct: purchased DiscoverX (KINOMEscan)

IRAK1 = biological target: T27, IRAK1 (Homo sapiens, UniProt P51617)
T27 construct: purchased DiscoverX (KINOMEscan)

TXK = biological target: T28, TXK (Homo sapiens, UniProt P42681)
T28 construct: purchased DiscoverX (KINOMEscan)
T28 sequence (P42681 whole entry): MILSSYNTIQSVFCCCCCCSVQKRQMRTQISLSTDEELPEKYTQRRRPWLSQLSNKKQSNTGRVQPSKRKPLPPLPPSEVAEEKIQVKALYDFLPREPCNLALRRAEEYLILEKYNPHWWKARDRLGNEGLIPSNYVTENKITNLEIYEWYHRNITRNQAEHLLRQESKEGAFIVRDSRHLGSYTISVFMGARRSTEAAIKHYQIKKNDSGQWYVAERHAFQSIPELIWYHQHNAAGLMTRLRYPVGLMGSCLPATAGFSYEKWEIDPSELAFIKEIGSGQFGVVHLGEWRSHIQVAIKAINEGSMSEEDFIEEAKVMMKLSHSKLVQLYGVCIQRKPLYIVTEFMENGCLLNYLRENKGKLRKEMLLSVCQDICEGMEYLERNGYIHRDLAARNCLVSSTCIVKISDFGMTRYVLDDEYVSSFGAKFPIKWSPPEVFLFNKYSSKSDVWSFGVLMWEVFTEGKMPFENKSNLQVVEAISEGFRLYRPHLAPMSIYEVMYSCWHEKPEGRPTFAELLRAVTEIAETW

DCAMKL3 = biological target: T29, DCAMKL3 (Homo sapiens, UniProt Q9C098)
T29 construct: purchased DiscoverX (KINOMEscan)

ERBB2 = biological target: T30, ERBB2 (Homo sapiens, UniProt P04626)
T30 construct: purchased DiscoverX (KINOMEscan)

EGFR(L861Q) = biological target: T31, EGFR(L861Q) (Homo sapiens, UniProt P00533, L861Q)
T31 construct: purchased DiscoverX (KINOMEscan)

[3] = biological target: T32, EGFR(L747-S752del, P753S) (Homo sapiens, UniProt P00533, DEL747-752/P753S)
T32 construct: purchased DiscoverX (KINOMEscan)

VRK2 = biological target: T33, VRK2 (Homo sapiens, UniProt Q86Y07)
T33 construct: purchased DiscoverX (KINOMEscan)
T33 sequence (Q86Y07 whole entry): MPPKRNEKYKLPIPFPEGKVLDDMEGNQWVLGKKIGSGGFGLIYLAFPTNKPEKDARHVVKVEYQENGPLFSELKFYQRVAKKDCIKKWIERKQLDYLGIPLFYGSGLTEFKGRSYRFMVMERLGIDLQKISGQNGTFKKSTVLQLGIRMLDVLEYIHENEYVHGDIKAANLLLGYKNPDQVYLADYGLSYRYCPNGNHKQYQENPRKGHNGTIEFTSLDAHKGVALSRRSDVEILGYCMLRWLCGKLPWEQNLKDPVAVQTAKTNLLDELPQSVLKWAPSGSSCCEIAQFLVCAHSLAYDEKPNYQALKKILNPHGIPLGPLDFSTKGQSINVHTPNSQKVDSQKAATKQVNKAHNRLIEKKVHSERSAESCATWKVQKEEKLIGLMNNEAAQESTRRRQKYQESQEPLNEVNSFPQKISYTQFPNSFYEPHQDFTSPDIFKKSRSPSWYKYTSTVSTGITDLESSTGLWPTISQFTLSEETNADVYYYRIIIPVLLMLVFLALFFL

[4] = biological target: T34, JAK1(JH1domain-catalytic) (Homo sapiens, UniProt P23458)
T34 construct: JAK1(JH1domain-catalytic); purchased DiscoverX (KINOMEscan)

ASK1 = biological target: T35, ASK1 (Homo sapiens, UniProt Q99683)
T35 construct: purchased DiscoverX (KINOMEscan)

MELK = biological target: T36, MELK (Homo sapiens, UniProt Q14680)
T36 construct: purchased DiscoverX (KINOMEscan)

COc1cc(/C=C2\N=C(N)NC2=O)ccc1O [Polyandrocarpamine A]
Score (FLT1): 100 | Score (ERK8): 67 | Score (BLK): 100 | Score (LATS2): 100 | Score (CSNK1G2): 100 | Score (BMPR1B): 42 | Score (SRMS): 100 | Score (CTK): 100 | Score (LIMK2): 96 | Score (MAP3K2): 100 | Score (STK35): 95 | Score (ACVRL1): 100 | Score [1]: 84 | Score (EPHB2): 79 | Score [2]: 100 | Score (TBK1): 100 | Score (LRRK2(G2019S)): 100 | Score (CDC2L1): 100 | Score (TRPM6): 100 | Score (ULK3): 100 | Score (EPHA6): 100 | Score (EGFR(T790M)): 93 | Score (ERBB4): 99 | Score (ULK2): 100 | Score (MKK7): 89 | Score (LKB1): 100 | Score (IRAK1): 28 | Score (TXK): 100 | Score (DCAMKL3): 94 | Score (ERBB2): 100 | Score (EGFR(L861Q)): 100 | Score [3]: 100 | Score (VRK2): 100 | Score [4]: 72 | Score (ASK1): 100 | Score (MELK): 100
